In patent publication US12285434B2, “Therapeutic, preventive, or improvement agent for inflammatory disease and allergic disease” (The University of Tokyo, priority 2018, dated 2025):

Key:
mouse aortae = test: Measurement of vascular contraction of aorta (aortic ring specimens)
Method: After excision of the thoracic aortae from untreated mice and removal of fat and connective tissue, the aortae were cut into rings to prepare aortic ring specimens. The ring specimens were immersed in a liquid tank filled with a normal nutrient solution (physiological saline solution containing 136.9 mM NaCl, 5.4 mM KCl, 5.5 mM glucose, 23.8 mM NaHCO3, 1.5 mM CaCl2, 1.0 mM MgCl2 and 0.01 mM EDTA), and two stainless hooks were penetrated through the lumens of the ring specimens. One end of each of the stainless hooks was fixed, and the other end thereof was connected to a force-displacement transducer (T7-30-240, manufactured by Orientec Co., Ltd.) connected to a strain amplifier (3134 strain AMPL, manufactured by Yokogawa Test & Measurement Corporation). Then, the following operation (a), (b) or (c) was performed.
(a) Norepinephrine (manufactured by Sigma) was cumulatively added into the liquid tank containing the ring specimens after stabilization of each contraction (every about 30 minutes) so as to attain 0.001 μM, 0.01 μM, 0.1 μM and 1 μM, and this group was designated as a “norepinephrine-administered group” (n=4) (FIG. 3A). 5,6-DiHETE was cumulatively added into the liquid tank containing the ring specimen after stabilization of each contraction (every about 30 minutes) so as to attain 0.001 μM, 0.01 μM, 0.1 μM and 1 μM, and this group was designated as a “5,6-DiHETE-administered group” (n=4) (FIG. 3A).
(b) Norepinephrine was added into the liquid tank containing the ring specimens so as to attain 0.3 μM, and precontraction was induced by administration of norepinephrine (FIG. 3B). Then, after the contraction by the administration of norepinephrine was stabilized, acetylcholine (manufactured by Sigma) was cumulatively added after stabilization of each relaxation reaction (every about 15 minutes) so as to attain 0.03 μM, 0.1 μM, 0.3 μM and 1 μM, and this group was designated as an “acetylcholine-administered group” (FIG. 3B). After the contraction by the administration of norepinephrine was stabilized, 5,6-DiHETE was cumulatively added every about 15 minutes so as to attain 0.001 μM, 0.01 μM, 0.1 μM and 1 μM, and this group was designated as a “5,6-DiHETE-administered group” (n=4) (FIG. 3B).
(c) In order to verify the effect of 5,6-DiHETE on the acetylcholine administration, norepinephrine was added into the liquid tank containing the ring specimens so as to attain 1 μM. After the contraction by the administration of norepinephrine was stabilized, 5,6-DiHETE or a vehicle (solvent alone) was added so as to attain 1 μM. […]
In the above operations (a) to (c), tension (contractile force) generated in the aortic ring specimens was measured isometrically over time using the above force-displacement transducer under a resting tension of 3 mN, and recorded.

NO production in HUVECs = test: Histamine-induced NO production (nitrite and nitrate); assay type: cell-based, human; settings: pretreatment 0.1 μM, 15 minutes; histamine 10 μM
Method: In Examples 4 to 6, human umbilical vein endothelial cells (hereinafter, sometimes referred to as “HUVECs”, manufactured by Lonza) were cultured in EGM-2 (manufactured by Lonza K.K.). These cells (passages 4 to 9) were used for experiments after 4-hour starvation in EBM-2 (manufactured by Lonza K.K.) containing 2% FBS.
The HUVECs were washed three times with HEPES and incubated in HEPES supplemented with 1 mM L-arginine and 10 μM tetrahydrobiopterin. After equilibration for 30 minutes, the medium was exchanged, and the cells were incubated for additional 30 minutes. […] The conditioned media before and after the stimulation (100 μL each) were collected and centrifuged in each amount of 300 g for 3 minutes. The supernatants were collected, and used to measure nitrite and nitrate, as stable metabolites of NO, by an ENO-20 NOx analyzer (manufactured by Eicom Corporation). The degrees of increases of nitrite and nitrate levels after the stimulation were normalized with cellular protein contents.

[1] = test system: calcium ion concentration in HUVECs; test: Histamine-induced increase of calcium ion concentration (fura-2); assay type: cell-based, human; settings: histamine 10 μM
Method: These cells (passages 4 to 9) were used for experiments after 4-hour starvation in EBM-2 (manufactured by Lonza K.K.) containing 2% FBS.
HUVECs were incubated with a calcium fluorescence indicator (3 μg fura-2/AM containing 0.11% Cremophor EL) for 30 minutes and washed with an HEPES buffer three times. […] Then, 5 minutes after the addition of each reagent, histamine was added so as to attain 10 μM. In addition, a group to which histamine was added so as to attain 10 μM without pretreatment was also prepared. A cover slip was placed in a specialized airtight chamber mounted onto the stage of a microscope maintained at 37° C. The HUVECs were excited at 340 nm and 380 nm and the emitted fluorescence signal was measured every 3 seconds at 510 nm for 60 seconds. The fluorescence ratio (R:F340/F380) was determined using a fluorescence imaging system (AQUACOSMOS, manufactured by Hamamatsu Photonics K.K.). After the experiment, 1 μM ionomycin was added and the fluorescence changes were measured in the presence of 0 or 1.5 mM calcium ions. The calcium ion concentration was indicated as A fluorescence ratio. AUC was calculated 1 minute after each stimulus to evaluate the A fluorescence ratio. It is known that the increase of calcium ion concentration in endothelial cells promotes NO production by eNOS phosphorylation and […] smooth muscle cells (Garcia-Cardena, G. et al., Nature, 392: 821-824(1998); and Luo, Z. et al., The Journal of clinical investigation, 106: 493-499(2000)).

CC/C=C\C/C=C\C/C=C\C/C=C\C[C@@H](O)[C@@H](O)CCCC(=O)O (racemic) [5,6-DiHETE, (±) 5,6-dihydroxy-8Z,11Z,14Z,17Z-eicosatetraenoic acid]
acetylcholine-induced aortic relaxation vs vehicle-administered group (mouse aortae; 1 μM pretreatment, precontraction 1 μM norepinephrine, acetylcholine 0.03-1 μM): significantly attenuated
contraction of aorta (mouse aortae; cumulative addition 0.001, 0.01, 0.1 and 1 μM): no contraction was caused
effect on aorta precontracted by norepinephrine (mouse aortae; precontraction 0.3 μM norepinephrine, cumulative 0.001, 0.01, 0.1 and 1 μM): did not affect the precontraction by norepinephrine
histamine-induced NO production (NO production in HUVECs): 0.11±0.06 pmol/μg protein
calcium ion concentration, AUC at 1 minute after stimulation ([1]; pretreatment 0.03 μM): 7.8±2.3
calcium ion concentration, AUC at 1 minute after stimulation ([1]; pretreatment 0.1 μM): 5.9±1.5
calcium ion concentration, AUC at 1 minute after stimulation ([1]; pretreatment 0.3 μM): 1.8±1.1
